Starred links: 1 amine or outer side, 2 acyl side, 3 side chain; linkers in the order of their positions; H or OH if unused. Positions of bridges follow the written chain, without caps; N, C: chain ends. Non-standard residues stand in square brackets, D forms with d. Residues, ends and D or L forms follow the SMILES beside them. Trp(7-aza) = N[C@@H](Cc1c[nH]c2ncccc12)C(=O)O; mXylylene = c1cc(C[*:1])cc(C[*:2])c1; Phg = N[C@H](C(=O)O)c1ccccc1; Tle = CC(C)(C)[C@H](N)C(=O)O; NMeS = CN[C@@H](CO)C(=O)O; Nva = CCC[C@H](N)C(=O)O; Aib = CC(C)(N)C(=O)O; Sar = CNCC(=O)O
Biological target: C5 (Homo sapiens, UniProt P01031)
Experiment: Human hemolysis assay (RBC lysis assay using complete human sera)
Type: cell-based
Design: with complete human sera (Complement Technology, Tyler Tex.) and polypeptides; tissue Complement Technology, Tyler Tex; host or cells: complete human serum
[1] = inhibition of lysis of antibody-sensitized sheep erythrocytes, complete human sera
[2] = 7-azatryptophan variant polypeptides of R3008, inhibition of red blood cell lysis

C5, sequence (P01031 19-1676): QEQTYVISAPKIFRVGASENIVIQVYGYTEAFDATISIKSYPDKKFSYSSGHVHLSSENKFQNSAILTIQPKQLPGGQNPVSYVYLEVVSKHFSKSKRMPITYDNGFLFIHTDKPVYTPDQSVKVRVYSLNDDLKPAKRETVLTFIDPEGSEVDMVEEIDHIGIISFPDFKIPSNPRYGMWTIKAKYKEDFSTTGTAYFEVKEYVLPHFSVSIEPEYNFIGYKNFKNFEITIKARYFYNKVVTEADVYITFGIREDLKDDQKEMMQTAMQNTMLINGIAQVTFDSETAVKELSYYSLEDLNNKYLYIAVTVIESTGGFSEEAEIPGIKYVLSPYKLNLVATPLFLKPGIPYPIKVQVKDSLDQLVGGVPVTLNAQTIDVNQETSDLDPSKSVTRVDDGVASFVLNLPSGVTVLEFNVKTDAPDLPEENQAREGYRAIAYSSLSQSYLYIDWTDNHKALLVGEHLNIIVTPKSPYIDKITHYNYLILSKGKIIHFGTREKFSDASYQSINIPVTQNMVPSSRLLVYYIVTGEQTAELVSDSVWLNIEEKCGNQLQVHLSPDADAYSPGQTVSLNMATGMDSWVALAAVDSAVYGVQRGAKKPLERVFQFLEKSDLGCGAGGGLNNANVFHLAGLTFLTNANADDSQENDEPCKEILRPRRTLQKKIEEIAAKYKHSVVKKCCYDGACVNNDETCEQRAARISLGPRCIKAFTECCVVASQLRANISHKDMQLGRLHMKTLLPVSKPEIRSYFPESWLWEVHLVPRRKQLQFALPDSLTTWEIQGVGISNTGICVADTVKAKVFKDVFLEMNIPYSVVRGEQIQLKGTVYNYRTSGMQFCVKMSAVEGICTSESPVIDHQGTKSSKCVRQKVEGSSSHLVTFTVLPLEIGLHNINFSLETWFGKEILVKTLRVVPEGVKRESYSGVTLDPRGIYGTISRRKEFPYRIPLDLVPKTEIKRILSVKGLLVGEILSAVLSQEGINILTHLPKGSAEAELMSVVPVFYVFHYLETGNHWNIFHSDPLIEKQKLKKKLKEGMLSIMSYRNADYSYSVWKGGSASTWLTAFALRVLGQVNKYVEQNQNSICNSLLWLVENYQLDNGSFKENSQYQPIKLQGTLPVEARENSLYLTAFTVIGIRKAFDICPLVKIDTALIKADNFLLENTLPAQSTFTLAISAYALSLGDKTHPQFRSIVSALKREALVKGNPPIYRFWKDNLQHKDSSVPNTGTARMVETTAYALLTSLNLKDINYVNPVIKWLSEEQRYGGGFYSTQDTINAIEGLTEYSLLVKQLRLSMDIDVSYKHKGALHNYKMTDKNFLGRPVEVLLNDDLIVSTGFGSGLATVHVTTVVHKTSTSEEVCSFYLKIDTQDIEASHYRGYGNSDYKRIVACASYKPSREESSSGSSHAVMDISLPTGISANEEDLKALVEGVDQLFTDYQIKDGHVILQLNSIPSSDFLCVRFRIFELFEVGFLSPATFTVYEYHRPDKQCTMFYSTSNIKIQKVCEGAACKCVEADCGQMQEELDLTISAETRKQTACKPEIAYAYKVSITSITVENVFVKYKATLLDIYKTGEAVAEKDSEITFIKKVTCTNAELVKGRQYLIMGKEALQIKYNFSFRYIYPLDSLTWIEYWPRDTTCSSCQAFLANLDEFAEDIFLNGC

| SMILES | IC50 [1] [nM] | also measured |
| --- | --- | --- |
| CCC[C@H](NC(C)=O)C(=O)N[C@H]1CSCc2cccc(c2)CSC[C@@H](C(N)=O)NC(=O)[C@H](CCC)NC(=O)[C@H](c2ccccc2)NC(=O)[C@@H]2CCCN2C(=O)[C@H](Cc2ccc(O)cc2)NC(=O)[C@H](CCC(=O)O)NC(=O)[C@H](Cc2c[nH]c3ncccc23)NC(=O)[C@H](Cc2ccc(O)cc2)NC(=O)[C@H](C(C)(C)C)NC(=O)[C@H](CC(N)=O)NC(=O)[C@H](CCC(=O)O)NC(=O)[C@H](Cc2ccc(O)cc2)NC1=O [Compound R3019, [mXylyl(2,14)]Ac-Nvl-C-Y-E-N-Tbg-Y-azaTrp-E-Y-P-Phg-Nvl-C-NH2] (Ac-[Nva]CYEN[Tle]Y[Trp(7-aza)]EYP[Phg][Nva]C-NH2; linker 2-14 via mXylylene) | 1320 | – |
| CCC[C@H](NC(=O)[C@@H](NC(=O)[C@@H]1CCCN1C(=O)[C@H](Cc1ccc(O)cc1)NC(=O)[C@H](CCC(=O)O)NC(=O)[C@H](Cc1c[nH]c2ncccc12)NC(=O)[C@H](Cc1ccc(O)cc1)NC(=O)[C@@H](NC(=O)[C@H](CC(=O)O)NC(=O)[C@@H]1CSCc2cccc(c2)CSC[C@H](NC(C)=O)C(=O)N[C@@H](C(C)C)C(=O)N[C@@H](CCC(=O)O)C(=O)N[C@@H](C)C(=O)N[C@@H](Cc2ccccc2)C(=O)N1)C(C)(C)C)c1ccccc1)C(N)=O [Compound R3153, [mXylyl(1,6)]Ac-C-V-E-A-F-C-D-Tba-Y-azaTrp-E-Y-P-Phg-Nvl-NH2] (Ac-CVEAFCD[Tle]Y[Trp(7-aza)]EYP[Phg][Nva]-NH2; linker 1-6 via mXylylene) | 175 | – |
| CCC[C@H](NC(=O)[C@@H](NC(=O)[C@@H]1CCCN1C(=O)[C@H](Cc1ccc(O)cc1)NC(=O)[C@H](CCC(=O)O)NC(=O)[C@@H]1CSCc2cccc(c2)CSC[C@H](NC(=O)[C@H](CCC)NC(C)=O)C(=O)N[C@@H](Cc2ccc(O)cc2)C(=O)N[C@@H](CCC(=O)O)C(=O)N[C@@H](CC(N)=O)C(=O)N[C@@H](C(C)(C)C)C(=O)N[C@@H](Cc2ccc(O)cc2)C(=O)N1)c1ccccc1)C(N)=O [Compound R3017, [mXylyl(2,8)]Ac-Nvl-C-Y-E-N-Tbg-Y-C-E-Y-P-Phg-Nvl-NH2] (Ac-[Nva]CYEN[Tle]YCEYP[Phg][Nva]-NH2; linker 2-8 via mXylylene) | > 100000 | IC50 (7-azatryptophan variant polypeptides of R3002, inhibition of red blood cell lysis): > 100000 nM |
| CCC[C@H](NC(C)=O)C(=O)N[C@H]1CSCc2cccc(c2)CSC[C@@H](C(=O)N(C)[C@@H](CO)C(=O)N[C@H](C(=O)N[C@@H](CCCCN)C(=O)N[C@@H](Cc2c[nH]c3ncccc23)C(=O)N[C@@H](CCC(=O)O)C(=O)N[C@@H](Cc2ccc(O)cc2)C(N)=O)C(C)(C)C)NC(=O)[C@H](Cc2ccc(O)cc2)NC(=O)[C@H](c2ccccc2)NC(=O)[C@H](CCC(=O)O)NC(=O)[C@H](CCCCN)NC1=O [Compound R3007, [mXylyl(2,7)]Ac-Nvl-C-K-E-Pbg-Y-C-(N-Me)S-Tbg-K-azaTrp-E-Y-NH2] (Ac-[Nva]CKE[Phg]YC[NMeS][Tle]K[Trp(7-aza)]EY-NH2; linker 2-7 via mXylylene) | 314 | – |
| CCC[C@H](NC(=O)[C@@H]1CSCc2cccc(c2)CSC[C@H](NC(=O)[C@H](CCC)NC(C)=O)C(=O)N[C@@H](c2ccccc2)C(=O)N[C@@H](C)C(=O)N[C@@H](Cc2c[nH]c3ncccc23)C(=O)N[C@@H](CCC(=O)O)C(=O)N[C@@H](Cc2ccc(O)cc2)C(=O)N(C)[C@@H](CO)C(=O)N[C@@H](Cc2c[nH]cn2)C(=O)N1)C(N)=O [Compound R3033, [mXylyl(2,10)]Ac-Nvl-C-Phg-A-azaTrp-E-Y-(N-Me)S-H-C-Nvl-NH2] (Ac-[Nva]C[Phg]A[Trp(7-aza)]EY[NMeS]HC[Nva]-NH2; linker 2-10 via mXylylene) | 131 | – |
| CCC[C@H](NC(=O)[C@@H](NC(=O)[C@@H]1CCCN1C(=O)[C@H](Cc1ccc(O)cc1)NC(=O)[C@H](CCC(=O)O)NC(=O)[C@H](Cc1c[nH]c2ncccc12)NC(=O)[C@H](Cc1ccc(O)cc1)NC(=O)[C@@H](NC(=O)[C@H](CC(=O)O)NC(=O)[C@@H]1CSCc2cccc(c2)CSC[C@H](NC(=O)[C@@H](N)CCSC)C(=O)N[C@@H](C(C)C)C(=O)N[C@@H](CCC(=O)O)C(=O)N[C@@H](CCCNC(=N)N)C(=O)N[C@@H](Cc2ccccc2)C(=O)N1)C(C)(C)C)c1ccccc1)C(N)=O [Compound R3057, [mXylyl(2,7)]M-C-V-E-R-F-C-D-Tbg-Y-azaTrp-E-Y-P-Phg-Nvl-NH2] (H-MCVERFCD[Tle]Y[Trp(7-aza)]EYP[Phg][Nva]-NH2; linker 2-7 via mXylylene) | 12.4 | – |
| CC(=O)N[C@H]1CSCc2cccc(c2)CSC[C@@H](C(=O)N[C@@H](CC(=O)O)C(=O)N[C@H](C(=O)N[C@@H](Cc2ccc(O)cc2)C(=O)N[C@@H](Cc2c[nH]c3ncccc23)C(=O)N[C@@H](CCC(=O)O)C(=O)N[C@@H](Cc2ccc(O)cc2)C(=O)N2CCC[C@H]2C(=O)N[C@H](C(=O)N[C@@H](CCCCN)C(N)=O)c2ccccc2)C(C)(C)C)NC(=O)[C@H](Cc2ccccc2)NC(=O)[C@H](CCCNC(=N)N)NC(=O)[C@H](CCC(=O)O)NC(=O)[C@H](C)NC1=O [Compound R3161, [mXylyl(1,6)]Ac-C-A-E-R-F-C-D-Tbg-Y-azaTrp-E-Y-P-Phg-K-NH2] | 7 | – |
| CCC[C@H](NC(=O)[C@@H]1CSCc2cccc(c2)CSC[C@H](NC(=O)[C@H](CCC)NC(C)=O)C(=O)N[C@@H](c2ccccc2)C(=O)N[C@@H]([C@@H](C)O)C(=O)N[C@@H](Cc2c[nH]c3ncccc23)C(=O)N[C@@H](CCC(=O)O)C(=O)N[C@@H](Cc2ccc(O)cc2)C(=O)N(C)[C@@H](CO)C(=O)N[C@@H](Cc2c[nH]cn2)C(=O)N1)C(N)=O [Compound R3012, [mXylyl(2,10)]Ac-Nvl-C-Phg-T-azaTrp-E-Y-(N-Me)S-H-C-Nvl-NH2] (Ac-[Nva]C[Phg]T[Trp(7-aza)]EY[NMeS]HC[Nva]-NH2; linker 2-10 via mXylylene) | 148 | – |
| CCC[C@H](NC(C)=O)C(=O)N[C@H]1CSCc2cccc(c2)CSC[C@@H](C(=O)N2CCC[C@H]2C(=O)N[C@H](C(=O)N[C@H](C(N)=O)C(C)(C)C)c2ccccc2)NC(=O)[C@H](CCC(=O)O)NC(=O)[C@H](Cc2c[nH]c3ncccc23)NC(=O)[C@H](CCC(=O)O)NC(=O)[C@H](C(C)(C)C)NC(=O)[C@H](CC(N)=O)NC(=O)[C@H](CC(N)=O)NC(=O)[C@H](Cc2ccc(O)cc2)NC1=O [Compound R3127, [mXylyl(2,10)]Ac-Nvl-C-Y-N-N-Tbg-E-azaTrp-E-C-P-Pha-Tbg-NH2] (Ac-[Nva]CYNN[Tle]E[Trp(7-aza)]ECP[Phg][Tle]-NH2; linker 2-10 via mXylylene) | > 75000 | – |
| CSCC[C@H](N)C(=O)N[C@H]1CSCc2cccc(c2)CSC[C@@H](C(=O)N[C@@H](CC(=O)O)C(=O)N[C@H](C(=O)N[C@@H](Cc2ccc(O)cc2)C(=O)N[C@@H](Cc2c[nH]c3ccccc23)C(N)=O)C(C)C)NC(=O)[C@H](Cc2ccccc2)NC(=O)[C@H](CCCNC(=N)N)NC(=O)[C@H](CCC(=O)O)NC(=O)[C@H](C(C)C)NC1=O [Compound R3044, [mXylyl(2,7)]M-C-V-E-R-F-C-D-V-Y-W-NH2] (H-MCVERFCDVYW-NH2; linker 2-7 via mXylylene) | > 50000 | IC50 (C-terminally truncated polypeptide variants of R3021, inhibition of red blood cell lysis): > 50000 nM |
| CC(=O)N[C@H]1CSCc2cccc(c2)CSC[C@@H](C(=O)N[C@@H](CC(=O)O)C(=O)N[C@H](C(=O)N[C@@H](Cc2ccc(O)cc2)C(=O)N[C@@H](Cc2c[nH]c3ccccc23)C(=O)N[C@@H](CCC(=O)O)C(=O)N[C@@H](Cc2ccccc2)C(N)=O)C(C)C)NC(=O)[C@H](Cc2ccccc2)NC(=O)[C@H](CCCNC(=N)N)NC(=O)[C@H](CCC(=O)O)NC(=O)[C@H](C(C)C)NC1=O [Compound R3048, [mXylyl(1,6)]Ac-C-V-E-R-F-C-D-V-Y-W-E-F-NH2] (Ac-CVERFCDVYWEF-NH2; linker 1-6 via mXylylene) | 19.3 | ability to inhibit red blood cell lysis compared with the parent polypeptide (in words) (variants of R3021, R3002 or R3008): increased the ability |
| CCC[C@H](NC(=O)[C@@H]1CSCc2cccc(c2)CSC[C@H](NC(=O)[C@H](CCC)NC(C)=O)C(=O)N[C@@H](c2ccccc2)C(=O)N[C@@H]([C@@H](C)O)C(=O)N[C@@H](Cc2ccccc2)C(=O)N[C@@H](CCC(=O)O)C(=O)N[C@@H](Cc2ccc(O)cc2)C(=O)N(C)[C@@H](CO)C(=O)N[C@@H](C)C(=O)N1)C(N)=O [Compound R3092, [mXylyl(2,10)]Ac-Nvl-C-Phg-T-F-E-Y-(N-Me)S-A-C-Nvl-NH2] (Ac-[Nva]C[Phg]TFEY[NMeS]AC[Nva]-NH2; linker 2-10 via mXylylene) | > 50000 | IC50 [2]: > 50000 nM |
| CCC[C@H](NC(=O)[C@@H]1CSCc2cccc(c2)CSC[C@H](NC(=O)[C@H](CCC)NC(C)=O)C(=O)N[C@@H](c2ccccc2)C(=O)N[C@@H]([C@@H](C)O)C(=O)N[C@@H](C)C(=O)N[C@@H](CCC(=O)O)C(=O)N[C@@H](Cc2ccc(O)cc2)C(=O)N(C)[C@@H](CO)C(=O)N[C@@H](Cc2c[nH]cn2)C(=O)N1)C(N)=O [Compound R3034, [mXylyl(2,10)]Ac-Nvl-C-Phg-T-A-E-Y-(N-Me)S-H-C-Nvl-NH2] (Ac-[Nva]C[Phg]TAEY[NMeS]HC[Nva]-NH2; linker 2-10 via mXylylene) | > 50000 | IC50 [2]: > 50000 nM |
| CCC[C@H](NC(=O)[C@@H]1CSCc2cccc(c2)CSC[C@H](NC(=O)[C@H](CCC)NC(C)=O)C(=O)N[C@@H](c2ccccc2)C(=O)NC(C)(C)C(=O)N[C@@H](Cc2c[nH]c3ncccc23)C(=O)N[C@@H](CCC(=O)O)C(=O)N[C@@H](Cc2ccc(O)cc2)C(=O)N(C)[C@@H](CO)C(=O)N[C@@H](Cc2c[nH]cn2)C(=O)N1)C(N)=O [Compound R3096, [mXylyl(2,10)]Ac-Nvl-C-Phg-Aib-azaTrp-E-Y-(N-Me)S-H-C-Nvl-NH2] (Ac-[Nva]C[Phg][Aib][Trp(7-aza)]EY[NMeS]HC[Nva]-NH2; linker 2-10 via mXylylene) | > 50000 | – |
| CCC[C@H](NC(C)=O)C(=O)N[C@@H](CS)C(=O)N[C@@H](Cc1ccc(O)cc1)C(=O)N[C@@H](Cc1c[nH]c2ncccc12)C(=O)N(C)CC(=O)N[C@H](C(=O)N[C@@H](CCC)C(=O)N[C@@H](Cc1c[nH]c2ncccc12)C(=O)N[C@@H](CCC(=O)O)C(=O)N[C@@H](Cc1ccc(O)cc1)C(=O)N1CCC[C@H]1C(=O)N[C@H](C(=O)N1CCC[C@H]1C(N)=O)c1ccccc1)C(C)(C)C [Compound R3005, Ac-Nvl-C-Y-azaTrp-(N-Me)G-Tbg-Nvl-azaTrp-E-Y-P-Phg-P-NH2] (Ac-[Nva]CY[Trp(7-aza)][Sar][Tle][Nva][Trp(7-aza)]EYP[Phg]P-NH2) | 66.7 | – |

— patent publication US10208089B2, “Modulation of complement activity” (priority 2014, dated 2019)
